Laboratory results reported in the supplement of paper PMC11616607.

Legend:
Assay in all cases: drug sensitivity score (DSS) from 5-point dose-response viability curve (DSS (area-under-curve based score)); higher = more sensitive (stronger growth inhibition or killing); extreme values may be limits of the assay
Settings in all cases: exposure time: 72 h; concentration range: 5 concentrations over 10,000-fold range
OVCAR4 = test system: OVCAR4
Summary of the method: (§1)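 Ovarian cancer and normal ovarian cell lines were tested in 384-well plates, with drugs dispensed acoustically (Echo 550) in DMSO or water at five concentrations covering a 10,000-fold range. After 1,500 cells per well were added, plates were incubated for 3 days at 37°C and 5% CO2, and viability was read by CellTiter-Glo luminescence on a PHERAstar FS. Breeze software gave a drug sensitivity score for each cell line and drug, where a higher score means greater sensitivity. A value of zero means no response.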

Kuramochi = test system: Kuramochi
Summary of the method: as §1

Ovsaho = test system: Ovsaho
Summary of the method: as §1

JHOS2 = test system: JHOS2
Summary of the method: as §1

HOSE2C = test system: HOSE2C
Summary of the method: as §1

COV362 = test system: COV362
Summary of the method: as §1

OV90 = test system: OV90
Summary of the method: as §1

HOSE1C = test system: HOSE1C
Summary of the method: as §1

CAOV3 = test system: CAOV3
Summary of the method: as §1

COV318 = test system: COV318
Summary of the method: as §1

OVCAR5 = test system: OVCAR5
Summary of the method: as §1

OVCAR8 = test system: OVCAR8
Summary of the method: as §1

Row | SMILES | drug sensitivity score (OVCAR4) | drug sensitivity score (Kuramochi) | drug sensitivity score (Ovsaho) | drug sensitivity score (JHOS2) | drug sensitivity score (HOSE2C) | drug sensitivity score (COV362) | drug sensitivity score (OV90) | drug sensitivity score (HOSE1C) | drug sensitivity score (CAOV3) | drug sensitivity score (COV318) | drug sensitivity score (OVCAR5) | drug sensitivity score (OVCAR8)
1 | O=c1[nH]c(C2CCCN2)nc2c1oc1ccc(Cl)cc12 (centres undefined) | 0 | 0 | 0 | 0 | 0.9 | 0 | 0.2 | 2.6 | 3.5 | 0 | 4 | 0
2 | CNC(=O)c1ccc(C)c(-n2c(C)cc(OCc3ccc(F)cc3F)c(Br)c2=O)c1 | 0 | 0.7 | 0 | 0 | 0 | 0 | 0 | 0 | 0 | 0 | 0.6 | 0
3 | COc1cc(N2CCC(N3CCN(C)CC3)CC2)ccc1Nc1ncnc(Nc2ccccc2S(=O)(=O)C(C)C)n1 [ASP3026] | 4.3 | 4 | 4.7 | 4.1 | 6.4 | 3.3 | 5.2 | 3.4 | 6.6 | 2.9 | 8.2 | 4.3
4 | Cn1cc(C2=Nc3cc(NC(=O)C(N)C4CCCCC4)cc4c3C2=CNNC4=O)cn1 (centres undefined) | 15.4 | 7.3 | 6.8 | 5.1 | 18.3 | 5.2 | 11.6 | 13.5 | 11 | 6.2 | 6.4 | 14.7
5 | Nc1ncnc2c1nc(Cl)n2[C@@H]1O[C@H](CO)[C@@H](O)[C@H]1O [8-chloro-adenosine] | 8 | 5.1 | 18.5 | 9.4 | 3.5 | 7.6 | 3.7 | 0.5 | 11.2 | 3.7 | 11.9 | 13.2
6 | C[C@]12C=CC(=O)C=C1CC[C@@H]1[C@@H]2[C@@H](O)C[C@@]2(C)[C@H]1CC[C@]2(O)C(=O)CO [Prednisolone] | 0 | 0 | 0 | 0.1 | 3.3 | 0 | 0.1 | 0 | 0 | 1.1 | 0 | 0.1
7 | C=CCc1cccc(/C=N/NC(=O)CN2CCN(Cc3ccccc3)CC2)c1O [PAC-1] | 3 | 2.1 | 4 | 0.7 | 2.7 | 0.4 | 2.6 | 3.1 | 3.2 | 0.2 | 1.7 | 4
